Patent US11072634B2, “Inhibitors of transglutaminases” (Zedira GmbH, priority 2016, dated 2021)

How the values were obtained:
[1] = molecular target: T1, recombinant human factor XIII A-subunit (rhFXIII-A, plasma transglutaminase) (Homo sapiens, UniProt P00488); experiment: Inhibition of rec. human coagulation factor XIII (fluorescence, Abz-NE(CAD-DNP)EQVSPLILLK-OH); format: biochemical; settings: Table 1, selectivity with respect to FXIII; read-out: IC50 FXIII
T1 construct: His6; purchased Zedira 1027 (so in the source); T027)
T1 sequence (P00488 39-732 limits assumed): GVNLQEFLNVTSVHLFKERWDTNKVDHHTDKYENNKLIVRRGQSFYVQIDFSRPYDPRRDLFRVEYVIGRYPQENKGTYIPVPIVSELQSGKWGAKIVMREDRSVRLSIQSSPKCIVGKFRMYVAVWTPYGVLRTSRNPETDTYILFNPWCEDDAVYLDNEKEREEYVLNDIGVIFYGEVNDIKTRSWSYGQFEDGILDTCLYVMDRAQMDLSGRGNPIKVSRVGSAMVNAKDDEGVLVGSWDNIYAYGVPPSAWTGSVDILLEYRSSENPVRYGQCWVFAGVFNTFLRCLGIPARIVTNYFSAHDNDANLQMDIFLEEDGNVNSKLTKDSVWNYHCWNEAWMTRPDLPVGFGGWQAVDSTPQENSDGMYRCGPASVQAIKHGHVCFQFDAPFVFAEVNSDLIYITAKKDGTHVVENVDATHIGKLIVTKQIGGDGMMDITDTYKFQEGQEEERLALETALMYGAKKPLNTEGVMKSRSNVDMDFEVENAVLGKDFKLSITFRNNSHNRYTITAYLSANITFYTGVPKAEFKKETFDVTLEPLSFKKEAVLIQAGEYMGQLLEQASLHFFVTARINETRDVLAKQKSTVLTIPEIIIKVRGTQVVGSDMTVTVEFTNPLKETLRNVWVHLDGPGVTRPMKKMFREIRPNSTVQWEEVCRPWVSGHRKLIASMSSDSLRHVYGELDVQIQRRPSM
Method in brief: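 His6-rhFXIII activated by human alpha thrombin in Tris buffer pH 7.4 with 7.5 mM CaCl2, 5 mM DTT, 13.4 mM glycine methylester and 50 μM quenched peptide substrate. Fluorescence (ex 313, em 418 nm) followed at 37 °C for 35 min; IC50 from slope between 20 and 30 min versus 2% DMSO control.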

[2] = system: Huh7 (human liver carcinoma cell line); experiment: Cell Proliferation ELISA, BrdU; format: cell-based; settings: highest concentration 1 mM
Procedure: (§1) The following cell lines are used for determination of cytotoxicity: • CaCo2 (human colon carcinoma cell line) • Huh7 (human liver carcinoma cell line).
(§2) Cells are cultivated in DMEM/10% FCS at 37° C. and 5% CO2 in a 96 well plate with an initial seeding density of 2×10^4 cells/well.
(§3) Transglutaminase inhibitors are added to the cells with final concentrations from 0.1 μM to 1 mM one hour after seeding. The different inhibitor dilutions are prepared in DMSO, resulting in a final concentration of 1% (v/v) DMSO in every well (2 μl inhibitor in 200 μl cell culture medium). Cycloheximide (2.5 μg/ml) and Camptothecin (0.2 μg/ml) are used as control compounds. All measurements are performed in triplicates.
(§4) Determination of proliferation using Cell Proliferation ELISA, BrdU (Roche, Cat. No. 11647229001).
(§5) After 24 h of incubation with inhibitors or controls, BrdU is added to the cells. After further incubation for 18 h, the cells are fixed and cellular DNA becomes denatured. A monoclonal antibody (conjugated with peroxidase) raised against BrdU is added to the wells and binds to BrdU which is incorporated into the DNA. Substrate solution is added and absorbance at 450 nm is recorded. Further analysis is performed according to the manufacturer's protocol.

[3] = system: CaCo2 (human colon carcinoma cell line); experiment: Cell Proliferation ELISA, BrdU; format: cell-based; settings: highest concentration 1 mM
Procedure: as §1, §2, §3, §4, §5

Structure (SMILES) | IC50 [1] | Cytotoxicity concentration (>10% deviation from negative control), BrdU, Huh-7 [2] | Cytotoxicity concentration (>10% deviation from negative control), BrdU, Caco2 [3]
COC(=O)[C@H](CC(C)C)NC(=O)[C@@H]1CCCN1C(=O)[C@@H](NC(=O)[C@H](CCC(=O)C(N)=O)NC(=O)OCc1ccccc1)C(C)C [Compound E02, (S)-methyl 2-((S)-1-((S)-2-((S)-6-amino-2-(benzyloxycarbonylamino)-5,6-dioxo-hexanamido)-3-methylbutanoyl)pyrrolidine-2-carboxamido)-4-methylpentanoate] | > 100 µM | >1 mM | >1 mM
CC(=O)N[C@@H](CCC(=O)C(N)=O)C(=O)N1CCN(c2ccccc2Cl)CC1 [Compound E06, (S)-5-acetamido-6-(4-(2-chlorophenyl)piperazin-1-yl)-2,6-dioxohexanamide] | > 100 µM | >1 mM | >1 mM
CC(=O)N1CCC[C@H]1C(=O)N[C@@H](CCC(=O)C(N)=O)C(=O)N1CCN(c2ncccc2C)CC1 [Compound E07, (S)-1-acetyl-N—((S)-6-amino-1-(4-(3-methylpyridin-2-yl)piperazin-1-yl)-1,5,6-trioxohexan-2-yl)pyrrolidine-2-carboxamide] | > 100 µM | >1 mM | >1 mM
